Experimental data taken from patent US9376454B2, “Beta-lactamase inhibitors” (priority 2013, dated 2016).

Experiments:
Format in all cases: biochemical
SHV-5 β-lactamase = target: T1, SHV-5 β-lactamase (Klebsiella pneumoniae, UniProt P0A3M1); assay: β-Lactamase inhibition enzyme assay, SHV-5
T1 construct: made in house; host or cells: E. coli BL21(DE3)
Experimental: (§1) For SHV-5, Kpc-2, p99AmpC and OXA-1 β-lactamases, E. coli BL21(DE3) bacterial cells carrying expression plasmids (expressed as native untagged proteins) for the individual β-lactamases were grown in 1 L of Superbroth (Teknova Inc. Hollister, Calif.) supplemented with 100 μg/ml kanamycin selection and 1×5052 (0.5% glycerol, 0.05% glucose and 0.2% α-lactose) at 35° C. for 18-20 hours. Cells were harvested by centrifugation (4,000×g, 4° C., 20 min), resuspended in 50 ml of 10 mM HEPES pH 7.5 ( 1/20 of the initial volume). The cells were lysed by sonication (5 pulses of 45 seconds) at 45 W on ice. The lysates were clarified by centrifugation at 10,000×g for 40 minutes at 4° C. Samples were diluted 5-fold in 50 mM sodium acetate pH 5.0, stored overnight at 4° C., after which they were centrifuged at 10,000×g for 30 minutes to clarify, and filtered through 0.45 μm filters. The samples were loaded onto a 5 ml Capto S sepharose cation exchange column (GE Healthcare) pre-equilibrated with 50 mM sodium acetate pH 5.0. The column was washed with 5 column volumes of 50 mM sodium acetate pH 5.0 to wash out unbound protein and a linear gradient of NaCl (0 to 500 mM) was used to elute the protein (over 16 CV) from the column. Fractions were assayed for β-lactamase activity using Centa (Calbiochem, Gibbstown, N.J.) or Nitrocefin (EMD Millipore chemicals, Darmstadt, Germany) as a reporter β-lactamase substrate for activity in the isolated fractions. Active fractions were pooled, concentrated and further purified by gel filtration chromatography on a Superdex 75 prep grade gel filtration column (GE Healthcare, Piscataway, N.J.) pre-equilibrated in 50 mM Hepes pH 7.5, 150 mM NaCl. Active fractions were pooled concentrated, quantitated by BCA protein determination (Thermo Scientific, Rockford, Ill.), dialyzed into PBS and frozen at −80° C. in 20% glycerol until use.
(§2) An equal volume of diluted enzyme stock was added, and the plates were incubated at 37° C. for 15 min. Nitrocefin was used as substrate for p99 AmpC, VIM-2 and OXA-1 and dispensed into each well at a final concentration of 100 μM. Absorbance at 486 nm was immediately monitored for 10 min using a Biotek Powerwave XS2 microplate spectrophotometer using the GEN5 softweare package (Biotek Instruments, Winooski Vt.). In an analogous fashion, imipenem was used as substrate for Kpc-2 and Cefotaxime was used for SHV-5, while changes in absorbance upon hydrolysis of the β-lactam ring were monitored at 300 nm and 260 nm respectively in UV-transparent 96-well microtiter assay plates. Maximum rates of hydrolysis were compared to those in control wells (without inhibitors), and percentages of enzyme inhibition were calculated for each concentration of inhibitor. The concentration of inhibitor needed to reduce the initial rate of hydrolysis of substrate by 50% (IC50) was calculated as the residual activity of β-lactamase at 486 nm using GraFit version 7 kinetics software package (Erithacus Software, Surrey, UK).

KPC-2 β-lactamase = target: T2, KPC-2 β-lactamase (Klebsiella pneumoniae, UniProt Q9F663); assay: β-Lactamase inhibition enzyme assay, KPC-2; conditions: imipenem as substrate, 300 nm; 15 min at 37° C. with enzyme, PBS pH 7.4; read-out: Class A KPC-2 IC50
T2 construct: made in house; host or cells: E. coli BL21(DE3)
T2 sequence (Q9F663 25-293, looked up): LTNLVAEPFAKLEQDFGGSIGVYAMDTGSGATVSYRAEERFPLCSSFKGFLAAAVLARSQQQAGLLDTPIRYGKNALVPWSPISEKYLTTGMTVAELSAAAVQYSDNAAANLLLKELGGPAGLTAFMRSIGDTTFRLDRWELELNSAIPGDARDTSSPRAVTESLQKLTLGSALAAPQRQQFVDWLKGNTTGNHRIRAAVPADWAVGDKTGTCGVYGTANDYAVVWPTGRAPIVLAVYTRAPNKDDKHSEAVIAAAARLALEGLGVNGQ
Experimental: as §1, §2

[1] = target: T3, VIM-2 metallo β-lactamase (Pseudomonas aeruginosa, UniProt Q9K2N0); assay: β-Lactamase inhibition enzyme assay, VIM-2; conditions: Nitrocefin 100 μM as substrate, 486 nm; 15 min at 37° C. with enzyme, PBS pH 7.4; read-out: Class B VIM-2 IC50
T3 construct: made in house; host or cells: E. coli BL21(DE3)
Experimental: as §1
For Vim-2 metallo β-lactamase, the procedure was identical with the following exceptions, first the protein was not pH adjusted to pH 5 with 50 mM sodium acetate, second, the chromatography step was changed to a 5 ml Q sepharose anion exchange column pre-equilibrated with 50 mM Hepes pH 7.5, and elution of the protein was achieved by a linear gradient of NaCl (0-600 mM). Finally, the VIM-2 purification required a second run (3rd step) on the Q sepharose anion exchange column to achieve acceptable purity (>90%).
as §2

p99 AmpC β-lactamase = target: T4, p99 AmpC β-lactamase (Enterobacter cloacae, UniProt P05364); assay: β-Lactamase inhibition enzyme assay, p99 AmpC
T4 construct: made in house; host or cells: E. coli BL21(DE3)
T4 sequence (P05364 21-381): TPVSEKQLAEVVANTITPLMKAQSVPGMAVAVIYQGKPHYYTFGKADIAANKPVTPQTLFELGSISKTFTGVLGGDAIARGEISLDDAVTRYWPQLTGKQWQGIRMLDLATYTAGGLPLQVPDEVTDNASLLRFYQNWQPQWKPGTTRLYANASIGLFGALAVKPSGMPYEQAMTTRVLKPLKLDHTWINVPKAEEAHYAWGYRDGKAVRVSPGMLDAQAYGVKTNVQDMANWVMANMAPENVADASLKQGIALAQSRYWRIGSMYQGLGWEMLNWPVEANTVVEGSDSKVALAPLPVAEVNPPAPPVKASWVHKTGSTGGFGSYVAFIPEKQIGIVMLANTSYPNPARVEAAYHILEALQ
Experimental: as §1, §2

OXA-1 β-lactamase = target: T5, OXA-1 β-lactamase (Escherichia coli, UniProt P13661); assay: β-Lactamase inhibition enzyme assay, OXA-1; conditions: Nitrocefin 100 μM as substrate, 486 nm; 15 min at 37° C. with enzyme, PBS pH 7.4; read-out: Class D OXA-1 IC50
T5 construct: made in house; host or cells: E. coli BL21(DE3)
T5 sequence (P13661 26-276): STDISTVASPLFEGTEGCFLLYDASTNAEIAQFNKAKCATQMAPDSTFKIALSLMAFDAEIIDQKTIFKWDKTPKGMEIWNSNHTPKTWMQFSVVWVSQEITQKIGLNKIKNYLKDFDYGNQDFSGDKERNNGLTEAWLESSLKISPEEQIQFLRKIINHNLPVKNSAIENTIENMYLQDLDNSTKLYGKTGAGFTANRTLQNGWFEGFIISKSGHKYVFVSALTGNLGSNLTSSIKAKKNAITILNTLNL
Experimental: as §1, §2

T1 sequence (P0A3M1 22-286): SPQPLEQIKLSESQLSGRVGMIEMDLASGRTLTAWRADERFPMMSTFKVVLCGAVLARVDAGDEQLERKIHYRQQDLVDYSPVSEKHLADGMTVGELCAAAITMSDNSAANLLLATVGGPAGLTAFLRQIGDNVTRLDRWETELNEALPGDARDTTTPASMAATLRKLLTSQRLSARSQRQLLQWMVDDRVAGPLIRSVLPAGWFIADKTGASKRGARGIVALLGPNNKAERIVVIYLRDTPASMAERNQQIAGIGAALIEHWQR

Row | Structure (SMILES) | IC50 (SHV-5 β-lactamase) | IC50 (KPC-2 β-lactamase) | IC50 [1] | IC50 (p99 AmpC β-lactamase) | IC50 (OXA-1 β-lactamase)
1 | O=C(N[C@H]1Cc2cccc(C(=O)O)c2OB1O)c1cnc2c(c1)CNC2 [Example 50, (3R)-3-(6,7-dihydro-5H-pyrrolo[3,4-b]pyridine-3-carbonylamino)-2-hydroxy-3,4-dihydro-1,2-benzoxaborinine-8-carboxylic acid] | < 100 nM | < 100 nM | 100 to 1000 nM | < 100 nM | < 100 nM
2 | CN1Cc2ccc(CC(=O)N[C@H]3Cc4cccc(C(=O)O)c4OB3O)cc2C1 [Example 48, (R)-2-Hydroxy-3-[2-(2-methyl-2,3-dihydro-1H-isoindol-5-yl)-acetylamino]-3,4-dihydro-2H-benzo[e][1,2]oxaborinine-8-carboxylic acid] | < 100 nM | < 100 nM | < 100 nM | < 100 nM | < 100 nM
3 | O=C(N[C@H]1Cc2cccc(C(=O)O)c2OB1O)c1ccc2[nH]ccc2c1 [Example 26, (R)-2-hydroxy-3-(1H-indole-5-carboxamido)-3,4-dihydro-2H-benzo[e][1,2]oxaborinine-8-carboxylic acid] | < 100 nM | < 100 nM | 100 to 1000 nM | < 100 nM | < 100 nM
4 | O=C(Cc1ccc2c(c1)CNCC2)N[C@H]1Cc2cccc(C(=O)O)c2OB1O [Example 51, (R)-2-Hydroxy-3-(2-1,2,3,4-tetrahydro-isoquinolin-7-yl-acetylamino)-3,4-dihydro-2H-benzo[e][1,2]oxaborinine-8-carboxylic acid] | < 100 nM | < 100 nM | < 100 nM | < 100 nM | < 100 nM
5 | O=C1Cc2cc(C(=O)N[C@H]3Cc4cccc(C(=O)O)c4OB3O)ccc2N1 [Example 33, (R)-2-Hydroxy-3-[(2-oxo-2,3-dihydro-1H-indole-5-carbonyl)-amino]-3,4-dihydro-2H-benzo[e][1,2]oxaborinine-8-carboxylic acid] | < 100 nM | < 100 nM | 100 to 1000 nM | < 100 nM | < 100 nM
6 | O=C(N[C@H]1Cc2cccc(C(=O)O)c2OB1O)c1ccc2cc[nH]c2c1 [Example 30, (R)-2-hydroxy-3-(1H-indole-6-carboxamido)-3,4-dihydro-2H-benzo[e][1,2]oxaborinine-8-carboxylic acid] | 100 to 1000 nM | < 100 nM | 100 to 1000 nM | < 100 nM | < 100 nM
7 | O=C(N[C@H]1Cc2cccc(C(=O)O)c2OB1O)c1ccc(O)c(O)c1 [Example 39, (R)-3-(3,4-dihydroxybenzamido)-2-hydroxy-3,4-dihydro-2H-benzo[e][1,2]oxaborinine-8-carboxylic acid] | 100 to 1000 nM | < 100 nM | 100 to 1000 nM | < 100 nM | < 100 nM
8 | CN(C)Cc1ccc(C(=O)N[C@H]2Cc3cccc(C(=O)O)c3OB2O)cc1NC(=O)[C@@H](N)CN [Example 21, (R)-3-(3-((S)-2,3-diaminopropanamido)-4-((dimethylamino)methyl)benzamido)-2-hydroxy-3,4-dihydro-2H-benzo[e][1,2]oxaborinine-8-carboxylic acid] | 100 to 1000 nM | < 100 nM | < 100 nM | < 100 nM | < 100 nM
9 | O=C(Cc1ccc2cc[nH]c2c1)N[C@H]1Cc2cccc(C(=O)O)c2OB1O [Example 46, (R)-2-Hydroxy-3-(2-1H-indol-6-yl-acetylamino)-3,4-dihydro-2H-benzo[e][1,2]oxaborinine-8-carboxylic acid] | < 100 nM | < 100 nM | < 100 nM | < 100 nM | < 100 nM
10 | NCCN1Cc2ccc(CC(=O)N[C@H]3Cc4cccc(C(=O)O)c4OB3O)cc2C1 [Example 49, (R)-3-{2-[2-(2-Amino-ethyl)-2,3-dihydro-1H-isoindol-5-yl]-acetylamino}-2-hydroxy-3,4-dihydro-2H-benzo[e][1,2]oxaborinine-8-carboxylic acid] | < 100 nM | < 100 nM | 100 to 1000 nM | < 100 nM | < 100 nM
11 | NCCOc1ccc(CC(=O)N[C@H]2Cc3cccc(C(=O)O)c3OB2O)cc1OCCN [Example 58, (R)-3-(2-(3,4-bis(2-aminoethoxy)phenyl)acetamido)-2-hydroxy-3,4-dihydro-2H-benzo[e][1,2]oxaborinine-8-carboxylic acid] | < 100 nM | < 100 nM | 100 to 1000 nM | < 100 nM | < 100 nM
12 | NCCOc1ccc(CC(=O)N[C@H]2Cc3cccc(C(=O)O)c3OB2O)cc1O [Example 59, (R)-3-(2-(4-(2-aminoethoxy)-3-hydroxyphenyl)acetamido)-2-hydroxy-3,4-dihydro-2H-benzo[e][1,2]oxaborinine-8-carboxylic acid] | < 100 nM | < 100 nM | 100 to 1000 nM | < 100 nM | < 100 nM
13 | O=C(N[C@H]1Cc2cccc(C(=O)O)c2OB1O)c1ccc2nccnc2c1 [Example 29, (R)-2-hydroxy-3-(quinoxaline-6-carboxamido)-3,4-dihydro-2H-benzo[e][1,2]oxaborinine-8-carboxylic acid] | < 100 nM | < 100 nM | 1000 to 10000 nM | < 100 nM | < 100 nM
14 | O=C(N[C@H]1Cc2cccc(C(=O)O)c2OB1O)c1ccc2ncccc2c1 [Example 28, (R)-2-hydroxy-3-(quinoline-6-carboxamido)-3,4-dihydro-2H-benzo[e][1,2]oxaborinine-8-carboxylic acid] | < 100 nM | < 100 nM | 1000 to 10000 nM | < 100 nM | < 100 nM
15 | CN1Cc2ccc(C(=O)N[C@H]3Cc4cccc(C(=O)O)c4OB3O)cc2C1 [Example 10, (R)-2-hydroxy-3-(2-methylisoindoline-5-carboxamido)-3,4-dihydro-2H-benzo[e][1,2]oxaborinine-8-carboxylic acid] | < 100 nM | < 100 nM | < 100 nM | < 100 nM | < 100 nM
16 | O=C(N[C@H]1Cc2cccc(C(=O)O)c2OB1O)c1cnc2[nH]ccc2c1 [Example 35, (R)-2-Hydroxy-3-[(1H-pyrrolo[2,3-b]pyridine-5-carbonyl)-amino]-3,4-dihydro-2H-benzo[e][1,2]oxaborinine-8-carboxylic acid] | < 100 nM | < 100 nM | 100 to 1000 nM | < 100 nM | < 100 nM
17 | N=C(N)N1Cc2ccc(CC(=O)N[C@H]3Cc4cccc(C(=O)O)c4OB3O)cc2C1 [Example 37, (3R)-3-[[2-(2-carbamimidoylisoindolin-5-yl)acetyl]amino]-2-hydroxy-3,4-dihydro-1,2-benzoxaborinine-8-carboxylic acid] | < 100 nM | < 100 nM | 100 to 1000 nM | < 100 nM | < 100 nM
18 | NCCn1ccc2c(C(=O)N[C@H]3Cc4cccc(C(=O)O)c4OB3O)cccc21 [Example 42, (R)-3-{[1-(2-Amino-ethyl)-1H-indole-4-carbonyl]-amino}-2-hydroxy-3,4-dihydro-2H-benzo[e][1,2]oxaborinine-8-carboxylic acid] | < 100 nM | < 100 nM | 100 to 1000 nM | < 100 nM | < 100 nM
